What was measured:
barnyard grass [1] = experiment: Test Example 3: herbicidal effect by foliage application, Wagner pot (Table 18, symbol H); assay type: in vivo, barnyard grass (Echinochloa crus-galli); conditions: 320 g/ha
Outline: (§1)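 Plants were sown in alluvial soil held under 0.1–0.5 cm standing water and grown 14 days in a greenhouse at 25–30 °C. An emulsifiable formulation, water-diluted to the set dose, was then sprayed onto the foliage, and effects were scored three weeks later using previously defined criteria.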

Chinese sprangletop = experiment: Test Example 3: herbicidal effect by foliage application, Wagner pot (Table 18, symbol D); assay type: in vivo, chinese sprangletop (Leptochloa chinensis); conditions: 320 g/ha
Outline: as §1

rice flat sedge = experiment: Test Example 3: herbicidal effect by foliage application, Wagner pot (Table 18, symbol E); assay type: in vivo, rice flat sedge (Cyperus iria); conditions: 320 g/ha
Outline: as §1

southern crabgrass [2] = experiment: Test Example 4: herbicidal effect by soil treatment (Table 19, symbol F); assay type: in vivo, southern crabgrass (Digitaria ciliaris); conditions: amount of applied herbicide 320 g/ha
Outline: (§2)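 In this soil treatment, the formulated compound reached the seeds only through the soil: seeds were buried about 1.5 cm deep in sterilized diluvial soil, then the diluted emulsion was sprayed over the surface. After three weeks at 25° C. to 30° C. in a greenhouse, effects were graded on criteria from an earlier test.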

green foxtail [3] = experiment: Test Example 4: herbicidal effect by soil treatment (Table 19, symbol G); assay type: in vivo, green foxtail (Setaria viridis); conditions: amount of applied herbicide 320 g/ha
Outline: as §2

barnyard grass [4] = experiment: Test Example 4: herbicidal effect by soil treatment (Table 19, symbol H); assay type: in vivo, barnyard grass (Echinochloa crus-galli); conditions: amount of applied herbicide 320 g/ha
Outline: as §2

wild oat [5] = experiment: Test Example 4: herbicidal effect by soil treatment (Table 19, symbol I); assay type: in vivo, wild oat (Avena fatua); conditions: amount of applied herbicide 320 g/ha
Outline: as §2

blackgrass [6] = experiment: Test Example 4: herbicidal effect by soil treatment (Table 19, symbol J); assay type: in vivo, blackgrass (Alopecurus myosuroides); conditions: amount of applied herbicide 320 g/ha
Outline: as §2

Italian ryegrass [7] = experiment: Test Example 4: herbicidal effect by soil treatment (Table 19, symbol K); assay type: in vivo, Italian ryegrass (Lolium multiflorum); conditions: amount of applied herbicide 320 g/ha
Outline: as §2

windgrass [8] = experiment: Test Example 4: herbicidal effect by soil treatment (Table 19, symbol L); assay type: in vivo, windgrass (Apera spica-venti); conditions: amount of applied herbicide 320 g/ha
Outline: as §2

velvetleaf [9] = experiment: Test Example 4: herbicidal effect by soil treatment (Table 19, symbol M); assay type: in vivo, velvetleaf (Abutilon theophrasti); conditions: amount of applied herbicide 320 g/ha
Outline: as §2

redroot pigweed [10] = experiment: Test Example 4: herbicidal effect by soil treatment (Table 19, symbol N); assay type: in vivo, redroot pigweed (Amaranthus retroflexus); conditions: amount of applied herbicide 320 g/ha
Outline: as §2

lambsquarters [11] = experiment: Test Example 4: herbicidal effect by soil treatment (Table 19, symbol O); assay type: in vivo, lambsquarters (Chenopodium album); conditions: amount of applied herbicide 320 g/ha
Outline: as §2

chickweed [12] = experiment: Test Example 4: herbicidal effect by soil treatment (Table 19, symbol P); assay type: in vivo, common chickweed (Stellaria media); conditions: amount of applied herbicide 320 g/ha
Outline: as §2

persian speedwell [13] = experiment: Test Example 4: herbicidal effect by soil treatment (Table 19, symbol R); assay type: in vivo, Persian speedwell (Veronica persica); conditions: amount of applied herbicide 320 g/ha
Outline: as §2

southern crabgrass [14] = experiment: Test Example 5: herbicidal effect by foliage application, plastic box (Table 20, symbol F); assay type: in vivo, southern crabgrass (Digitaria ciliaris); conditions: amount of applied herbicide 320 g/ha; foliage application after 14-day growth; evaluated three weeks after application
Outline: (§3)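 Plants were sown into sterilized diluvial soil under about 1.5 cm cover and kept in a greenhouse at 25° C. to 30° C. Fourteen days on, foliage received an even spray of the diluted emulsion. Herbicidal or crop effect was judged three weeks afterwards.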

green foxtail [15] = experiment: Test Example 5: herbicidal effect by foliage application, plastic box (Table 20, symbol G); assay type: in vivo, green foxtail (Setaria viridis); conditions: amount of applied herbicide 320 g/ha; foliage application after 14-day growth; evaluated three weeks after application
Outline: as §3

barnyard grass [16] = experiment: Test Example 5: herbicidal effect by foliage application, plastic box (Table 20, symbol H); assay type: in vivo, barnyard grass (Echinochloa crus-galli); conditions: amount of applied herbicide 320 g/ha; foliage application after 14-day growth; evaluated three weeks after application
Outline: as §3

wild oat [17] = experiment: Test Example 5: herbicidal effect by foliage application, plastic box (Table 20, symbol I); assay type: in vivo, wild oat (Avena fatua); conditions: amount of applied herbicide 320 g/ha; foliage application after 14-day growth; evaluated three weeks after application
Outline: as §3

blackgrass [18] = experiment: Test Example 5: herbicidal effect by foliage application, plastic box (Table 20, symbol J); assay type: in vivo, blackgrass (Alopecurus myosuroides); conditions: amount of applied herbicide 320 g/ha; foliage application after 14-day growth; evaluated three weeks after application
Outline: as §3

Italian ryegrass [19] = experiment: Test Example 5: herbicidal effect by foliage application, plastic box (Table 20, symbol K); assay type: in vivo, Italian ryegrass (Lolium multiflorum); conditions: amount of applied herbicide 320 g/ha; foliage application after 14-day growth; evaluated three weeks after application
Outline: as §3

windgrass [20] = experiment: Test Example 5: herbicidal effect by foliage application, plastic box (Table 20, symbol L); assay type: in vivo, windgrass (Apera spica-venti); conditions: amount of applied herbicide 320 g/ha; foliage application after 14-day growth; evaluated three weeks after application
Outline: as §3

velvetleaf [21] = experiment: Test Example 5: herbicidal effect by foliage application, plastic box (Table 20, symbol M); assay type: in vivo, velvetleaf (Abutilon theophrasti); conditions: amount of applied herbicide 320 g/ha; foliage application after 14-day growth; evaluated three weeks after application
Outline: as §3

redroot pigweed [22] = experiment: Test Example 5: herbicidal effect by foliage application, plastic box (Table 20, symbol N); assay type: in vivo, redroot pigweed (Amaranthus retroflexus); conditions: amount of applied herbicide 320 g/ha; foliage application after 14-day growth; evaluated three weeks after application
Outline: as §3

lambsquarters [23] = experiment: Test Example 5: herbicidal effect by foliage application, plastic box (Table 20, symbol O); assay type: in vivo, lambsquarters (Chenopodium album); conditions: amount of applied herbicide 320 g/ha; foliage application after 14-day growth; evaluated three weeks after application
Outline: as §3

chickweed [24] = experiment: Test Example 5: herbicidal effect by foliage application, plastic box (Table 20, symbol P); assay type: in vivo, common chickweed (Stellaria media); conditions: amount of applied herbicide 320 g/ha; foliage application after 14-day growth; evaluated three weeks after application
Outline: as §3

persian speedwell [25] = experiment: Test Example 5: herbicidal effect by foliage application, plastic box (Table 20, symbol R); assay type: in vivo, Persian speedwell (Veronica persica); conditions: amount of applied herbicide 320 g/ha; foliage application after 14-day growth; evaluated three weeks after application
Outline: as §3

Compound	herbicidal effect on barnyard grass (H) (barnyard grass [1])	herbicidal effect on Chinese sprangletop (D) (Chinese sprangletop)	herbicidal effect on rice flat sedge (E) (rice flat sedge)	Herbicidal effect by soil treatment, F: southern crabgrass (southern crabgrass [2])	Herbicidal effect by soil treatment, G: green foxtail (green foxtail [3])	Herbicidal effect by soil treatment, H: barnyard grass (barnyard grass [4])	Herbicidal effect by soil treatment, I: wild oat (wild oat [5])	Herbicidal effect by soil treatment, J: blackgrass (blackgrass [6])	Herbicidal effect by soil treatment, K: Italian ryegrass (Italian ryegrass [7])	Herbicidal effect by soil treatment, L: windgrass (windgrass [8])	Herbicidal effect by soil treatment, M: velvetleaf (velvetleaf [9])	Herbicidal effect by soil treatment, N: redroot pigweed (redroot pigweed [10])	Herbicidal effect by soil treatment, O: lambsquarters (lambsquarters [11])	Herbicidal effect by soil treatment, P: chickweed (chickweed [12])	Herbicidal effect by soil treatment, R: persian speedwell (persian speedwell [13])	Herbicidal effect by foliage application, F: southern crabgrass (southern crabgrass [14])	Herbicidal effect by foliage application, G: green foxtail (green foxtail [15])	Herbicidal effect by foliage application, H: barnyard grass (barnyard grass [16])	Herbicidal effect by foliage application, I: wild oat (wild oat [17])	Herbicidal effect by foliage application, J: blackgrass (blackgrass [18])	further results
Cc1nn(C)c(=O)c(-c2c(-c3ccc(OC(F)(F)F)cc3)sc3c(Cl)cccc23)c1O [4-078]	3 (Herbicidal rate of 40% or more and less than 70%)	2 (Herbicidal rate of 20% or more and less than 40%)	3 (Herbicidal rate of 40% or more and less than 70%)	0 (Herbicidal rate of 5% or less (almost no effect))	0 (Herbicidal rate of 5% or less (almost no effect))	0 (Herbicidal rate of 5% or less (almost no effect))	0 (Herbicidal rate of 5% or less (almost no effect))	0 (Herbicidal rate of 5% or less (almost no effect))	0 (Herbicidal rate of 5% or less (almost no effect))	0 (Herbicidal rate of 5% or less (almost no effect))	0 (Herbicidal rate of 5% or less (almost no effect))	2 (Herbicidal rate of 20% or more and less than 40%)	0 (Herbicidal rate of 5% or less (almost no effect))	3 (Herbicidal rate of 40% or more and less than 70%)	4 (Herbicidal rate of 70% or more and less than 90%)	0 (Herbicidal rate of 5% or less (almost no effect))	0 (Herbicidal rate of 5% or less (almost no effect))	0 (Herbicidal rate of 5% or less (almost no effect))	0 (Herbicidal rate of 5% or less (almost no effect))	0 (Herbicidal rate of 5% or less (almost no effect))	Herbicidal effect by foliage application, K: Italian ryegrass (Italian ryegrass [19]): 0 (Herbicidal rate of 5% or less (almost no effect)); Herbicidal effect by foliage application, L: windgrass (windgrass [20]): 5 (Herbicidal rate of 90% or more (almost completely withered)); Herbicidal effect by foliage application, M: velvetleaf (velvetleaf [21]): 3 (Herbicidal rate of 40% or more and less than 70%); Herbicidal effect by foliage application, N: redroot pigweed (redroot pigweed [22]): 5 (Herbicidal rate of 90% or more (almost completely withered)); Herbicidal effect by foliage application, O: lambsquarters (lambsquarters [23]): 3 (Herbicidal rate of 40% or more and less than 70%); Herbicidal effect by foliage application, P: chickweed (chickweed [24]): 5 (Herbicidal rate of 90% or more (almost completely withered)); Herbicidal effect by foliage application, R: persian speedwell (persian speedwell [25]): 5 (Herbicidal rate of 90% or more (almost completely withered))
Cc1nn(C)c(=O)c(-c2c(-c3ccc(SC(C)C)cc3)sc3c(Cl)cccc23)c1O [4-096]	5 (Herbicidal rate of 90% or more (almost completely withered))	3 (Herbicidal rate of 40% or more and less than 70%)	3 (Herbicidal rate of 40% or more and less than 70%)	0 (Herbicidal rate of 5% or less (almost no effect))	0 (Herbicidal rate of 5% or less (almost no effect))	0 (Herbicidal rate of 5% or less (almost no effect))	0 (Herbicidal rate of 5% or less (almost no effect))	0 (Herbicidal rate of 5% or less (almost no effect))	0 (Herbicidal rate of 5% or less (almost no effect))	0 (Herbicidal rate of 5% or less (almost no effect))	0 (Herbicidal rate of 5% or less (almost no effect))	5 (Herbicidal rate of 90% or more (almost completely withered))	3 (Herbicidal rate of 40% or more and less than 70%)	3 (Herbicidal rate of 40% or more and less than 70%)	4 (Herbicidal rate of 70% or more and less than 90%)	0 (Herbicidal rate of 5% or less (almost no effect))	3 (Herbicidal rate of 40% or more and less than 70%)	4 (Herbicidal rate of 70% or more and less than 90%)	2 (Herbicidal rate of 20% or more and less than 40%)	3 (Herbicidal rate of 40% or more and less than 70%)	Herbicidal effect by foliage application, K: Italian ryegrass (Italian ryegrass [19]): 4 (Herbicidal rate of 70% or more and less than 90%); Herbicidal effect by foliage application, L: windgrass (windgrass [20]): 3 (Herbicidal rate of 40% or more and less than 70%); Herbicidal effect by foliage application, M: velvetleaf (velvetleaf [21]): 3 (Herbicidal rate of 40% or more and less than 70%); Herbicidal effect by foliage application, N: redroot pigweed (redroot pigweed [22]): 5 (Herbicidal rate of 90% or more (almost completely withered)); Herbicidal effect by foliage application, O: lambsquarters (lambsquarters [23]): 4 (Herbicidal rate of 70% or more and less than 90%); Herbicidal effect by foliage application, P: chickweed (chickweed [24]): 5 (Herbicidal rate of 90% or more (almost completely withered)); Herbicidal effect by foliage application, R: persian speedwell (persian speedwell [25]): 5 (Herbicidal rate of 90% or more (almost completely withered))

From US20230085307A1, “PYRIDAZINONE COMPOUND AND HERBICIDE” (NISSAN CHEMICAL CORPORATION, priority 2019, published 2023)
